According to article PMC4140803 (PLoS ONE, 2014):
Read-outs that look alike come from different tables or passages of the source.

Legend:
3TCP-21 HIV-1IIIB = assay: Phenotypic analysis of resistant variants in C8166; assay type: cell-based; conditions: for EC50: Human immunodeficiency virus 1, C8166, 3TC-selected HIV-1IIIB at P-21; for FC, fold change, the ratio of EC50(Mut)/EC50(WT): 3TCP-21 HIV-1IIIB vs wild type HIV-1IIIB
[1] = tested on: pNL4-3 gp41 (36G) V38A/N42T; assay type: cell-based, HIV-1; conditions: C8166, pNL4-3 gp41 (36G) V38A/N42T, subtype B, FI-resistant
HIV-1TC-1 = assay: Anti-HIV activity in vitro, PBMC; assay type: cell-based; conditions: Human immunodeficiency virus 1, HIV-1TC-1, CRF01AE, clinical strain
Protocol: (§1) C8166 cells were infected with different HIV-1 or HIV-2 laboratory strains and resistant strains at different serial concentration compounds with multiplicity of infection (MOI) of 0.075∼0.6. PHA-stimulated PBMCs were incubated with different clinical strains in RPMI-1640 (with 10% FBS, 50 U/ml IL-2 and 2 µg/ml polybrene) at MOI of 0.1. After infection at 37°C in 5% CO2 for 2 hours, C8166 cells were washed three times to remove free viruses and re-suspended by RPMI-1640 (with 10% FBS). 100 µl 4×10^4 cells (5×10^5 cells for PBMC) were seeded each well in a 96-well plate with gradient concentration of FNC. The plate was placed in a humidified incubator at 37°C, 5% CO2. 3TC and AZT were used as control. After incubation of 3–7 days, the percentage inhibition of syncytia formation was scored or the level of p24 was measured by ELISA [19] and 50% effective concentration (EC50) were calculated.

HIV-1KM018 = assay: Anti-HIV activity in vitro, PBMC; assay type: cell-based; conditions: for EC50: read-out: EC50s
Protocol: as §1

C8166 cells = assay type: cell-based, human
Protocol: (§2) Cytotoxicity was assayed by MTT colorimetric reduction as previously described, [18]. Briefly, a serial concentration of FNC was added to a 96-well plate, followed by 100 µl 4×10^4 C8166 cells (5×10^5 cells for PBMC). After incubation at 37°C, 5% CO2 for 3 days (7 days for PBMCs), 20 µl MTT was added each well. After incubation for 4 hours, 100 µl supernatant was removed and 100 µl 20%SDS-50%DMF was added. The plate was incubated at 37°C overnight. The optical absorbance was measured by ELISA reader (ELx800, Bio-Tek, VT, USA) at 570 nm and 630 nm, and 50% cytotoxicity concentration (CC50) was calculated. 3TC and AZT were used as control.

FNCP-21 HIV-1 IIIB = assay: Phenotypic analysis of resistant variants in C8166; assay type: cell-based; conditions: for EC50: Human immunodeficiency virus 1, C8166, FNC-selected HIV-1IIIB at P-21; for FC, fold change, the ratio of EC50(Mut)/EC50(WT): FNCP-21 HIV-1 IIIB vs wild type HIV-1IIIB
HIV-1WAN T69N = assay: microbe, parasite or virus in culture; assay type: cell-based; conditions: for EC50: Human immunodeficiency virus 1, PBMC, HIV-1WAN T69N, CRF01AE, clinical strain
PBMC = assay type: cell-based, human
Protocol: C8166 cells were kindly donated by the Medical Research Council (MRC), the AIDS Reagent Project, U.K, and were maintained in RPMI-1640 with 10% FBS in humidified incubator with 5% CO2 at 37°C [16]. Peripheral blood mononuclear cells (PBMCs) were isolated from healthy donors by Ficoll-Hypaque density gradient centrifugation as described by the manufacturer’s instructions (Ethical Approval Number: SWYX-2011016). PBMCs were stimulated with 10% FBS, 5 µg/ml PHA and 50 U/ml IL-2 for three days before experiments.
as §2

[2] = tested on: HIV-1L10R/M46I/L63P/V82T/I84V; assay: microbe, parasite or virus in culture; assay type: cell-based; conditions: Human immunodeficiency virus 1, C8166, read-out: EC50s
HIV-1IIIB [3] = assay: Selection of drug-resistant HIV-1 variants and genotypic resistance assay; assay type: cell-based
HIV-1RF = assay: Anti-HIV activity in vitro, C8166; assay type: cell-based; conditions: Human immunodeficiency virus 1, subtype B
Protocol: as §1

HIV-2ROD = assay: Anti-HIV activity in vitro, C8166; assay type: cell-based; conditions: Human immunodeficiency virus 2, subtype A
Protocol: as §1

HIV-1_74V = assay: Anti-HIV activity in vitro, C8166; assay type: cell-based; conditions: Human immunodeficiency virus 1, subtype B, NRTI-resistant
Protocol: as §1

HIV-2CBL-20 = assay: Anti-HIV activity in vitro, C8166; assay type: cell-based; conditions: Human immunodeficiency virus 2; C8166, HIV-2CBL-20, subtype A
Protocol: as §1

Wild type HIV-1IIIB = assay: Anti-HIV activity / phenotypic analysis in C8166; assay type: cell-based; conditions: for EC50: Human immunodeficiency virus 1, C8166, wild type HIV-1IIIB; for FC, fold change, the ratio of EC50(Mut)/EC50(WT): wild type HIV-1IIIB (reference)
HIV-1 [4] = assay: Activity assay with 50% human serum in C8166; assay type: cell-based; conditions: C8166, 50% human serum, data not shown
HIV-1 [5] = assay: Anti-HIV activity in vitro, summary over HIV-1 strains; assay type: cell-based; conditions: Human immunodeficiency virus 1
Protocol: as §1

HIV-2 = assay: Anti-HIV activity in vitro, summary over HIV-2 strains; assay type: cell-based; conditions: Human immunodeficiency virus 2; range over HIV-2 strains; read-out: EC50s on HIV-2
Protocol: as §1

HIV-1IIIB [6] = assay: Quantification of HIV-1 DNA species by real-time quantitative PCR; conditions: HIV-1IIIB infected C8166, 2 nM FNC or 2 µM 3TC
[7] = Human immunodeficiency virus 1, PBMC, HIV-1KM018, B/C recombinant, clinical strain

Row | SMILES | EC50 (3TCP-21 HIV-1IIIB) [µM] | EC50 [1] [µM] | EC50 (HIV-1TC-1) [µM] | EC50 (HIV-1KM018; [7]) [µM] | CC50s (C8166 cells; C8166 cells, MTT, 3 days) [µM] | EC50 (FNCP-21 HIV-1 IIIB) [µM] | EC50 (HIV-1WAN T69N) [µM] | CC50s (PBMC; PBMC, MTT, 7 days) [µM] | EC50 [2] [µM] | EC50 (HIV-1RF) [nM] | EC50 (HIV-2ROD) [nM] | EC50 (HIV-1_74V) [µM] | EC50 (HIV-2CBL-20) [nM] | EC50 (Wild type HIV-1IIIB) [µM] | FC, fold change, the ratio of EC50(Mut)/EC50(WT) (3TCP-21 HIV-1IIIB) | FC, fold change, the ratio of EC50(Mut)/EC50(WT) (FNCP-21 HIV-1 IIIB) | FC, fold change, the ratio of EC50(Mut)/EC50(WT) (Wild type HIV-1IIIB) | other results
1 | Nc1ccn([C@@H]2CS[C@H](CO)O2)c(=O)n1 [3TC, lamivudine, reference compound] | 690 | 0.386 ± 0.0362 | 0.0517 ± 0.00308 | 0.34 ± 0.0122 | 930 ± 190 | 124 | 0.0865 ± 0.011 | 825.98 ± 30.52 | 0.416 ± 0.0118 | 350 ± 206 | 257 ± 43.6 | 0.243 ± 0.0101 | 319 ± 29.8 | 0.202 ± 0.0341 |  |  |  | inhibition at 1 µM (HIV-1IIIB [3]; Human immunodeficiency virus 1, C8166): > 99%
2 | Cc1cn([C@H]2C[C@H](N=[N+]=[N-])[C@@H](CO)O2)c(=O)[nH]c1=O [AZT, zidovudine] | 0.0131 ± 0.00243 |  |  |  |  | 0.0123 ± 0.00024 |  |  |  |  |  |  |  | 0.00939 ± 0.00122 | 1.40 | 1.31 | 1 | EC50 (HIV-1KM018; Human immunodeficiency virus 1, PBMC): 0.478 ± 0.0455 µM; CC50s (C8166 cells; human): 5090 ± 260 µM; CC50s (PBMC; human): 845.31 ± 66.23 µM
3 | [N-]=[N+]=N[C@]1(CO)O[C@@H](n2ccc(N)nc2=O)[C@@H](F)[C@@H]1O [FNC, 2′-deoxy-2′-β-fluoro-4′-azidocytidine] | 0.0255 ± 0.00186 | 0.00036 ± 3e-05 | 0.00034 ± 4e-05 | 0.00692 ± 0.00059 | 2380 ± 50 | 0.0808 ± 0.00814 | 0.00045 ± 9e-05 | 3.07 ± 0.23 | 0.00014 ± 1e-05 | 0.03 ± 0.02 | 0.018 ± 0.006 | 0.00011 ± 1e-05 | 0.025 ± 0.002 | 0.00011 ± 2e-05 | 232 | 735 | 1 | EC50s against HIV-1 in presence of human serum (HIV-1 [4]): unaffected; suppressive effects fold stronger than 3TC (HIV-1KM018; clinical strains in PBMC, first value of the sentence): 49 fold; EC50 (HIV-1 [5]; range over HIV-1 strains, read-out: EC50s on HIV-1): 0.03 to 6.92 nM; EC50 (HIV-1 [5]; wild-type HIV-1IIIB and HIV-1RF, read-out: 50% effective concentration values (EC50)): 0.03 to 0.11 nM; suppressive effects fold stronger than 3TC (HIV-1WAN T69N; clinical strains in PBMC, second value of the sentence): 192 fold; EC50 (HIV-2): 0.018 to 0.025 nM; inhibition at 0.0005 µM (HIV-1IIIB [3]; Human immunodeficiency virus 1, HIV-1IIIB infected C8166, 500 pM FNC): > 99%; levels of ssDNA (strong-stop minus-strand DNA) (HIV-1IIIB [6]; 1 h, 2 h and 4 h post-infection): significantly reduced; late RT level (full-length double-stranded DNA) (HIV-1IIIB [6]; 4 h, 6 h and 8 h post-infection, P<0.01): significantly reduced
